# Values of other authors, collected in paper PMC7356390, “Dehydrozingerone, a Curcumin Analog, as a Potential Anti-Prostate Cancer Inhibitor In Vitro and In Vivo” (Molecules, 2020).
# How the values were obtained:
# [1] = intraperitoneal administration of 100 mg/kg; cited from earlier work
# HT-29 cells = test system: HT-29 cells; parameters: method as in PMID 23245566; conditions: cited from earlier work
compound,measurement,setting,value
"COc1cc(/C=C/C(C)=O)ccc1O [DZG, (E)-4-(4-hydroxy-3-methoxyphenyl)-but-3-en-2-one]","effect on serum aspartate aminotransferase, alanine transaminase, serum creatinine, blood urea and lactate dehydrogenase",[1],no effect
same,concentration range that suppressed proliferation of HT-29 cells (G2/M arrest),HT-29 cells,250 to 500 µM
